Patent publication EP0054589B1, “Organic phosphoric acid ester derivatives, a process for preparing the same and insecticidal, miticidal or nematocidal compositions containing the same” (priority 1980, dated 1982)
Read-outs that look alike come from different tables or passages of the source.

Key:
apple leaf miner = experiment: Insecticidal effect on apple leaf miner (sprayed apple seedling); assay type: in vivo, Lithocolletis ringoniella; conditions: Phyllonorycter ringoniella, 336 h, 500 ppm, fourteen days after spraying
Summary of the method: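 Wettable-powder suspensions were sprayed onto potted apple seedlings infested with newly hatched leaf miner larvae, then kept in a greenhouse.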

egg plant = experiment: Phytotoxicity observed visually in the mite test on egg plant; assay type: in vivo; set-up: key: —: None; +: Slightly toxic; ++: Toxic; +++: Strongly toxic; conditions: 500 ppm, observed visually on the 7th day after the application
Protocol: (§1) (A) An emulsifiable concentrate prepared as described in Formulation Example 1 and diluted to a predetermined concentration was sprayed using a spray-gun on a seedling of an egg plant placed in a pot of 12 cm in diametre to which plant carmine mites resistant to Kelthane were parasitic. After drying in air, seedlings were kept in a green house, and the number of living insects was recorded on the 7th, 14th, 21 st and 28th day from the day of application to determine the control effects. Three pots were used for each treatment. The control effect was assessed by the formula described in TEST EXAMPLE 7 above. Further, phytotoxicity was observed visually on the 7th day after the application.
as §1, with “(B) An” for “(A) An”, “Example 3” for “Example 1”, “in diameter” for “in diametre”, “in Test” for “in TEST”

rice stem borer = experiment: Insecticidal effect on rice stem borer, 3rd-instar larvae (rice seedling dip); assay type: in vivo, Chilo suppressalis; conditions: after 72 hours, 25°C
Summary of the method: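 Wettable-powder formulations were diluted in water to set concentrations, and rice seedlings were dipped in them. Ten 3rd-instar larvae were placed per capped cup with the treated seedlings and held at 25°C.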

tobacco cutworm [1] = experiment: Long-lasting insecticidal effect on tobacco cutworm (sprayed cabbage plantlet); assay type: in vivo, Prodenia litura; conditions: concentration 500 (unit not given), mortality after 48 hours; for Percent Mortality After Application 3rd Day: leaves cut on 3rd day; for Percent Mortality After Application 5th Day: leaves cut on 5th day; for Percent Mortality After Application 7th Day: leaves cut on 7th day; for Percent Mortality After Application 10th Day: leaves cut on 10th day; for Percent Mortality After Application 15th Day: leaves cut on 15th day
Summary of the method: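 Cabbage plantlets sprayed with water-diluted emulsifiable concentrate and held in a greenhouse; leaves cut on days 3, 5, 7, 10 and 15 and fed to 3rd-instar larvae at 25°C. Percent mortality scored after 48 h; 3 replicates, 30 insects each.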

tobacco cutworm [2] = experiment: Insecticidal effect on tobacco cutworm (cabbage leaf dip); assay type: in vivo, Prodenia litura; conditions: after 48 hours, 25°C
Summary of the method: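 Cabbage leaves dipped in water-diluted emulsifiable concentrate (two formulations, tests A and B) and air-dried were fed to 3rd-instar tobacco cutworm larvae at 25°C. Percent mortality scored after 48 hours; 3 replicates of 30 insects per compound.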

[3] = test system: carmine mites resistant to Kelthane; experiment: Miticidal effect on carmine mite resistant to Kelthane (sprayed egg plant seedling); assay type: in vivo, Tetranychus cinnabarius; conditions: 500 ppm; for Number of Living Mites after Application 7th Day / Number of Living Mites after Application 14th Day / Number of Living Mites after Application 21st Day / Number of Living Mites after Application 28th Day: egg plant seedling; for Control Effect (%): from mite counts on 7th, 14th, 21st and 28th day
Protocol: as §1
as §1, with “(B) An” for “(A) An”, “Example 3” for “Example 1”, “in diameter” for “in diametre”, “in Test” for “in TEST”

[4] = Table 10, wettable powder as Formulation Example 5, read-out: Percent Morality (%)
[5] = Table 1, 500 ppm, wettable powder as Formulation Example 5
[6] = Table 3, 500 ppm, emulsifiable concentrate as Formulation Example 1
[7] = Table 13, Formulation Example 1
[8] = Table 14, Formulation Example 3

Row | SMILES | mortality at 500 ppm (apple leaf miner; [4]) [%] | Phytotoxicit (egg plant; Table 13) | Percent Mortality (%) (rice stem borer; [5]) | Percent Mortality After Application 3rd Day (tobacco cutworm [1]; Table 5) [%] | Percent Mortality After Application 5th Day (tobacco cutworm [1]; Table 5) [%] | Percent Mortality After Application 7th Day (tobacco cutworm [1]; Table 5) [%] | Percent Mortality After Application 10th Day (tobacco cutworm [1]; Table 5) [%] | Percent Mortality After Application 15th Day (tobacco cutworm [1]; Table 5) [%] | Percent Mortality (%) (tobacco cutworm [2]; [6]) | Number of Living Mites after Application 7th Day [3, 7] | Number of Living Mites after Application 14th Day [3, 7] | Number of Living Mites after Application 21st Day [3, 7] | Number of Living Mites after Application 28th Day [3, 7] | Control Effect (%) ([3]; Table 13) | further results
1 | CCCSP(=O)(OC)Oc1ccc2c(c1)OC(C)=CC2(C)C (centres unmarked) [Compound No. 1] | 100 | — | 100 | 100 | 100 | 100 | 100 | 100 | 100 | 0 | 0 | 5 | 11 | 99.0 | 
2 | CCCSP(=O)(OCC)Oc1ccc2c(c1)OC(C)=CC2(C)C (centres unmarked) [Compound No. 2, O-ethyl-S-propyl-O-(2,4,4-trimethyl-1,4-benzopyran-7-yl)phosphorothioate] | 100 | — | 100 | 100 | 100 | 100 | 100 | 100 | 100 | 0 | 0 | 7 | 10 | 99.1 | 
3 | CCCSP(=S)(OC)Oc1ccc2c(c1)OC(C)=CC2(C)C (centres unmarked) [Compound No. 9, 0-methyl-S-propyl-(2,4,4-trimethyl-1,4-benzopyran-7-yl)phosphorodithioate] | 100 | — | 100 | 100 | 100 | 100 | 100 | 93.3 | 100 | 0 | 0 | 0 | 0 | 100 | 
4 | CCCSP(=S)(OCC)Oc1ccc2c(c1)OC(C)=CC2(C)C (centres unmarked) [Compound No. 10] | 100 | — | 100 | 100 | 100 | 100 | 100 | 96.7 | 100 | 0 | 0 | 4 | 16 | 99.0 | Phytotoxicit (egg plant; Table 14): —; Number of Living Mites after Application 7th Day [3, 8]: 0; Number of Living Mites after Application 14th Day [3, 8]: 0; Number of Living Mites after Application 21st Day [3, 8]: 0; Number of Living Mites after Application 28th Day [3, 8]: 12; Control Effect (%) ([3]; Table 14): 98.7%
5 | CCCSP(=O)(OCC)Oc1ccc2c(c1)OC(C)(C)C=C2C (centres unmarked) [Compound No. 20, O-ethyl-S-propyl-0-(2,2,4-trimethyl-1,2-benzopyran-7-yl)phosphorothioate] | 100 |  | 100 | 100 | 100 | 100 | 100 | 33.3 | 100 |  |  |  |  |  | mortality at 500 ppm (apple leaf miner; Table 11, wettable powder as Formulation Example 7, read-out: Percent Mortality (%)): 96.6%; Percent Mortality (%) (rice stem borer; Table 1, 100 ppm, wettable powder as Formulation Example 5): 100%; Percent Mortality (%) (rice stem borer; Table 2, 100 ppm, wettable powder as Formulation Example 7): 100%; Percent Mortality After Application 3rd Day (tobacco cutworm [1]; Table 6): 100%; Percent Mortality After Application 5th Day (tobacco cutworm [1]; Table 6): 100%; Percent Mortality After Application 7th Day (tobacco cutworm [1]; Table 6): 100%; Percent Mortality After Application 10th Day (tobacco cutworm [1]; Table 6): 90.0%; Percent Mortality After Application 15th Day (tobacco cutworm [1]; Table 6): 46.7%; Percent Mortality After Application Immediately after Application (tobacco cutworm [1]; Table 6): 100%; Percent Mortality (%) (tobacco cutworm [2]; Table 4, 100 ppm, emulsifiable concentrate as Formulation Example 3): 100%
